pIC50: −log10 of the molar value.

In the assay the target is full-length recombinant human FYN A (Homo sapiens (Human), UniProt P06241). As to the kind of experiment: ADP-Glo Kinase Assay of FYN kinase inhibition. It counts as biochemical. The conditions noted are these: primary screen, initial compounds. An excerpt: The chemical library was comprised of the SoftFocus ATP-competitive hinge binding compounds described by Harris, C. J., Hill, R. D., Sheppard, D. W., et al., The Design and Application of Target-Focused Compound Libraries. Combinatorial Chemistry and High Throughput Screening 14:521-31 (2011). The specific pharmacore chemistries included SFK52 comprising 6-[R2]-3-[R1]imidazo[1,2-b] pyridazine compounds, SFK33 comprising N-(3-[R2] imidazo [1,2-b] pyridazin-6-yl) [R1] amine compounds, SFK49 comprising N-(5-[R2] imidazo [2,1-b][1,3,4] thiadiazol-2-yl)[R1]-amine compounds, SFK 40 comprising 5-[R2]-3-[R1] pyridin-2-amine compounds, SFK43 comprising 6-[R2]-3-[R1]imidazo[1,2-a]pyrazine compounds, and SFK63. The chemical structures of the initial 600 potential kinase inhibitors are presented in Table 3, with those chosen for additional analysis presented in Table 4. Comparison of the compounds presented in Table 1 and those of Tables 2, 3 and 4, illustrate the novelty of the chemical structures claimed herein.
Chain of full-length recombinant human FYN A (P06241 whole entry): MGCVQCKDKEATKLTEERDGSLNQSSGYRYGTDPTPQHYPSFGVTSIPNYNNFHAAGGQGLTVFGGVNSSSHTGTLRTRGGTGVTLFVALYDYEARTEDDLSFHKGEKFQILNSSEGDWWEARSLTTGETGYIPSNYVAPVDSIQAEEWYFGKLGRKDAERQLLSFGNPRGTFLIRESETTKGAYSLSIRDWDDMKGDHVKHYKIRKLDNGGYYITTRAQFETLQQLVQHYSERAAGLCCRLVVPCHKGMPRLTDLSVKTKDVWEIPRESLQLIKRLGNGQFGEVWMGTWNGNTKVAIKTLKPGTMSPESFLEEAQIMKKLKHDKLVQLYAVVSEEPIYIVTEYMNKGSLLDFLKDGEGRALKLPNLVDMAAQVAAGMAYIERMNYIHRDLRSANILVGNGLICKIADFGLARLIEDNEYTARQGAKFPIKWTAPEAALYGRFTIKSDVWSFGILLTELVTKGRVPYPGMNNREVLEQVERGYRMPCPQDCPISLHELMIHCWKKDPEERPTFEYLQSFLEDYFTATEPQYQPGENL
FYN kinase (10 micrograms) was from the FYN A Kinase Enzyme System (V3571, Promega UK Ltd.), a full-length recombinant human FYN A containing an N-terminal GST tag of about 85 kDa, expressed by bacullovirus in […] insect cells, supplied at a concentration of 0.1 microgram/microliter in 5×reaction buffer. The FYN substrate, a 12 amino acid peptide of the sequence […], containing a single tyrosine phosphorylation site, was custom synthesized (Peptide Synthetics, Peptide Protein Research, Fareham, UK) and supplied as a 4 mg/ml aqueous solution. All other reagents were obtained from Sigma (Sigma-Aldrich, Gillingham, Dorset, UK), with the exception of UltraPure ATP (V9102, Promega UK Ltd.) and the ATP-competitive broad spectrum protein kinase inhibitor staurosporine (569397, Merck Millipore, Watford, Hertfordshire, UK), or as otherwise indicated.
The assay procedure determines the IC50 of each potential FYN kinase inhibitor by measuring the enzyme catalyzed ATP-dependent phosphorylation of the FYN substrate peptide. The ADP-Glo™ Kinase Assay is specifically designed to quantify kinase activity by measuring the ADP produced in the reaction The reaction buffer comprises 40 mM Tris.HCl (pH 7.5), 20 mM MgCl2, 0.1 mg/ml BSA and 5 microM DTT. Individual compounds within the chemical library were dissolved in DMSO at known concentrations. Briefly, 2.5 microliters of reaction buffer containing 3 picograms of FYN kinase and serial dilutions of each potential FYN kinase inhibitor (9 3-fold dilutions of a 10 micromolar top sample) are placed into each well of a 384 well microtiter plate and incubated at room temperature for 30 minutes. An additional 2.5 microliters of reaction buffer containing 100 picograms of the FYN substrate and 12.5 picomoles of ATP are then added to each well and the reaction carried out for 90 minutes at room temperature. The reactions are terminated by addition of 5 microliters of the ADP-Glo™ Reagent component of the ADP-Glo™ Kinase Assay kit to each well. The ADP-Glo™ Reagent comprises an ATP-dependent adenylate cyclase, an inorganic pyrophosphatase and an excess of staurosporine. The adenylate cyclase converts the remaining ATP to cAMP and pyrophospahte, the pyrophosphatase converts the pyrophosphate to phosphate and the staurosporine inhibits the activity of the FYN kinase, the net effect is to remove all residual ATP while preserving the ADP produced by FYN kinase. The terminated reactions are incubated for 40 minutes at room temperature, prior to addition of the Kinase Detection Reagent component of the ADP-Glo™ Kinase Assay kit to each well. The Kinase Detection Reagent comprises pyruvate kinase, phosphoenol pyruvate (PEP), luciferin and luciferase. The pyruvate kinase converts PEP to pyruvate and in the process generates ATP from the residual ADP present in the terminated reaction. […]
(ADP-Glo turns the ADP formed in a reaction into a luminescent signal.)
Broadly, the pIC50 is −log10 of the IC50, conventionally taken in molar units. Consider `COc1ccc(-c2cncc(-c3cccc(NC(C)=O)c3)n2)cc1` [035_0081_0280, N-[3-[6-(4-methoxyphenyl)pyrazin-2-yl]phenyl] acetamide], for which the pIC50 is 5.46.
As to `CC(=O)Nc1cccc(-c2cncc(-c3cccc(O)c3)n2)c1` [035_0081_0284, N-[3-[6-(3-hydroxyphenyl)pyrazin-2-yl]phenyl] acetamide], the pIC50 is 5.41.
Turning to `CCC(CO)Nc1cncc(-c2ccc(O)cc2)n1` (centres unmarked) [035_0153_0080, 4-[6-[1-(hydroxymethyl)propylamino]pyrazin-2-yl]phenol], the pIC50 was 4.81.
With `CCC(CO)Nc1cncc(-c2cc(C(C)C)ccc2OC)n1` (centres unmarked) [035_0153_0286, 2-[[6-(5-isopropyl-2-methoxy-phenyl)pyrazin-2-yl]amino]butan-1-ol] the figure was 4.93; with `CCC(CO)Nc1cncc(-c2ccc(N)cc2)n1` (centres unmarked) [035_0153_0333, 2-[[6-(4-aminophenyl)pyrazin-2-yl]amino]butan-1-ol], 4.68.
In the case of `Nc1cccc(-c2cncc(NCc3ccccc3)n2)c1` [035_0232_0005, 6-(3-aminophenyl)-N-benzyl-pyrazin-2-amine], the pIC50 was 5.18.
For `COc1ccc(-c2cncc(-c3cccc(C(=O)NCCCN(C)C)c3)n2)cc1` [035_0280_0302, N-[3-(dimethylamino)propyl]-3-[6-(4-methoxyphenyl)pyrazin-2-yl]benzamide], the pIC50 is 5.04.
As to `COc1ccc(-c2cncc(-c3ccc(O)c(OC)c3)n2)cc1` [035_0280_0314, 2-methoxy-4-[6-(4-methoxyphenyl)pyrazin-2-yl]phenol], the pIC50 is 5.29.
To `COc1cc(Nc2cncc(-c3cccc(NC(C)=O)c3)c2)cc(OC)c1OC` [081_0087_0081, N-[3-[5-(3,4,5-trimethoxyanilino)-3-pyridyl]phenyl] acetamide] belongs 6.41.
For the compound `C[C@@H](c1ccccc1)n1c(=O)[nH]c2ncc(-c3cccc(C(=O)N(C)C)c3)nc21` [170_0148_0349, N,N-dimethyl-3-[2-oxo-3-[(1S)-1-phenylethyl]-1H-imidazo[4,5-b]pyrazin-5-yl]benzamide], the pIC50 is 5.75.
Turning to `COc1cccc(Cn2c(=O)[nH]c3ncc(-c4cc(OC)c(OC)c(OC)c4)nc32)c1` [170_4313_0087, 3-[(3-methoxyphenyl)methyl]-5-(3,4,5-trimethoxy-phenyl)-1H-imidazo[4,5-b]pyrazin-2-one], the pIC50 is 4.63.
For the compound `CN(C)c1cccc(-c2cnc(Nc3ccc(N4CCOCC4)cc3)c3nccn23)c1` [184_0088_0135, 5-[3-(dimethyl-amino)phenyl]-N-(4-morpholino-phenyl) imidazo[1,2-a]pyrazin-8-amine], the pIC50 is 5.57.
Take `COCCNc1ccc2ncc(-c3ccsc3)n2n1` [229_0033_0074, N-(2-methoxy-ethyl)-3-(3-thienyl)imidazo [1,2-b]pyridazin-6-amine]: the pIC50 was 5.28.
`COCCNc1ccc2ncc(-c3ccc(OC)c(OC)c3)n2n1` [229_0033_0079, 3-(3,4-dimethoxy-phenyl)-N-(2-methoxyethyl) imidazo[1,2-b]pyridazin-6-amine]: the pIC50 was 5.81.
Consider `COCCNc1ccc2ncc(-c3ccc(F)cc3)n2n1` [229_0033_0339, 3-(4-fluoro-phenyl)-N-(2-methoxyethyl) imidazo[1,2-b]pyridazin-6-amine], for which the pIC50 was 5.40.
For the compound `c1ccc(-c2cnc3ccc(NCc4ccco4)nn23)cc1` [229_0144_0061, N-(2-furylmethyl)-3-phenyl-imidazo[1,2-b]pyridazin-6-amine], the pIC50 is 5.20.
With `COc1cc(-c2cnc3ccc(NCc4ccco4)nn23)cc(OC)c1OC` [229_0144_0086, N-(2-furylmethyl)-3-(3,4,5-trimethoxyphenyl) imidazo[1,2-b]pyridazin-6-amine] the figure was 5.31.
`O=C(O)c1ccc(-c2cnc3ccc(NCc4ccco4)nn23)cc1` [229_0144_0140, 4-[6-(2-furylmethyl-amino)imidazo[1,2-b]pyridazin-3-yl]benzoic acid]: the pIC50 is 5.41.
With `COc1ccc(-c2cnc3ccc(NCc4ccco4)nn23)cc1` [229_0144_0280, N-(2-furyl-methyl)-3-(4-methoxyphenyl) imidazo[1,2-b]pyridazin-6-amine] the figure was 5.43.
For the compound `Nc1cccc(-c2cnc3ccc(NCc4cccs4)nn23)c1` [229_0146_0005, 3-(3-aminophenyl)-N-(2-thienyimethyl) imidazo[1,2-b]pyridazin-6-amine], the pIC50 was 5.75.
With `COc1cc(-c2cnc3ccc(NCc4cccs4)nn23)cc(OC)c1OC` [229_0146_0087, N-(2-thienylmethyl)-3-(3,4,5-trimethoxyphenyl) imidazo[1,2-b]pyridazin-6-amine], the pIC50 was 5.51.
On to `COc1ccc(-c2cnc3ccc(NCc4cccs4)nn23)cc1` [229_0146_0280, 3-(4-methoxyphenyl)-N-(2-thienylmethyl) imidazo[1,2-b]pyridazin-6-amine], for which the pIC50 is 5.27.
As to `Oc1cccc(-c2cnc3ccc(NCc4cccs4)nn23)c1` [229_0146_0284, 3-[6-(2-thienylmethyl-amino)imidazo[1,2-b]pyridazin-3-yl]phenol], the pIC50 was 5.77.
For `OCc1ccc(-c2cnc3ccc(NCc4cccs4)nn23)cc1` [229_0146_0285, [4-[6-(2-thienylmethyl-amino)imidazo[1,2-b]pyridazin-3-yl]phenyl] methanol], the pIC50 is 5.96.
To `Nc1ccc(-c2cnc3ccc(NCc4cccs4)nn23)cc1` [229_0146_0333, 3-(4-amino-phenyl)-N-(2-thienylmethyl) imidazo[1,2-b]pyridazin-6-amine] belongs 5.27; to `Fc1ccc(-c2cnc3ccc(NCc4cccs4)nn23)cc1` [229_0146_0339, 3-(4-fluoro-phenyl)-N-(2-thienylmethyl) imidazo[1,2-b]pyridazin-6-amine], 5.48.
To `COc1cccc(-c2cnc3ccc(NCc4cccs4)nn23)c1` [229_0146_4140, 3-(3-methoxyphenyl)-N-(2-thienylmethyl) imidazo[1,2-b]pyridazin-6-amine] belongs 5.53.
With `CC(=O)c1cccc(-c2cnc3ccc(NCc4cccs4)nn23)c1` [229_0146_4145, 1-[3-[6-(2-thienylmethyl-amino)imidazo[1,2-b]pyridazin-3-yl]phenyl] ethanone] the figure was 6.36.
Regarding `CCC(CO)Nc1ccc2ncc(-c3cc(OC)c(OC)c(OC)c3)n2n1` (centres unmarked) [229_0153_0087, 2-[[3-(3,4,5-trimethoxy-phenyl)imidazo[1,2-b]pyridazin-6-yl]amino] butan-1-ol], the pIC50 is 5.89.
To `CCC(CO)Nc1ccc2ncc(-c3ccc(OC)cc3)n2n1` (centres unmarked) [229_0153_0280, 2-[[3-(4-methoxyphenyl)imidazo[1,2-b]pyridazin-6-yl]amino] butan-1-ol] belongs 5.89; to `CCC(CO)Nc1ccc2ncc(-c3ccc(CO)cc3)n2n1` (centres unmarked) [229_0153_0285, 2-[[3-[4-(hydroxy-methyl)phenyl]imidazo[1,2-b]pyridazin-6-yl]amino]butan-1-ol], 5.61; to `CCC(CO)Nc1ccc2ncc(-c3ccc(OC)nc3)n2n1` (centres unmarked) [229_0153_0311, 2-[[3-(6-methoxy-3-pyridyl)imidazo [1,2-b]pyridazin-6-yl]amino] butan-1-ol], 5.63.
